Measurements from patent US12209102B2, “Heterocyclic compounds and uses thereof” (Kumquat Biosciences Inc., priority 2022, dated 2025).

Experiments:
Assay type in all cases: biochemical
[1] = molecular target: T1, K-Ras G12V (Homo sapiens, UniProt P01116, G12V); assay: HTRF resonance energy transfer assay, K-Ras G12V / SOS1 interaction; conditions: HTRF assay of Example 5; read-out: IC50 against K-Ras G12V
T1 construct: made in house; host or cells: E. coli BL21 (DE3)
Procedure, shortened: (§1)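 Read-out: HTRF 665/620 nm ratio (excitation 337 nm) after roughly 10 min or longer incubation, used to derive IC50. Donor anti-GST-Eu on GST-K-Ras; acceptor anti-6His-XL665 on His-hSOS1. Duplicate dose series from 10 μM down to 0.01 μM.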

[2] = molecular target: T2, K-Ras G12D (Homo sapiens, UniProt P01116, G12D); assay: HTRF resonance energy transfer assay, K-Ras G12D / SOS1 interaction; conditions: HTRF assay of Example 5; read-out: IC50 against K-Ras G12D
T2 construct: made in house; host or cells: E. coli BL21 (DE3)
Procedure, shortened: as §1

[3] = molecular target: T3, K-Ras WT (Homo sapiens, UniProt P01116); assay: HTRF resonance energy transfer assay, K-Ras WT / SOS1 interaction; conditions: HTRF assay of Example 5; read-out: IC50 against K-Ras WT
T3 construct: made in house; host or cells: E. coli BL21 (DE3)
Procedure, shortened: as §1

[4] = molecular target: T4, K-Ras G12S (Homo sapiens, UniProt P01116, G12S); assay: HTRF resonance energy transfer assay, K-Ras G12S / SOS1 interaction; conditions: HTRF assay of Example 5; read-out: IC50 against K-Ras G12S
T4 construct: made in house; host or cells: E. coli BL21 (DE3)
Procedure, shortened: as §1

T2 sequence (P01116 1-188 isoform P01116-2 G12D): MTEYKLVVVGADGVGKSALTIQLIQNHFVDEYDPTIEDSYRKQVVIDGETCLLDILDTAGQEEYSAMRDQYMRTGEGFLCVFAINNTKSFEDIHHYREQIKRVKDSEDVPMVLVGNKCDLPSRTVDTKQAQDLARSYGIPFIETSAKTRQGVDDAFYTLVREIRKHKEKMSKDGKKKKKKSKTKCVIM
T1 sequence (P01116 1-188 isoform P01116-2 G12V): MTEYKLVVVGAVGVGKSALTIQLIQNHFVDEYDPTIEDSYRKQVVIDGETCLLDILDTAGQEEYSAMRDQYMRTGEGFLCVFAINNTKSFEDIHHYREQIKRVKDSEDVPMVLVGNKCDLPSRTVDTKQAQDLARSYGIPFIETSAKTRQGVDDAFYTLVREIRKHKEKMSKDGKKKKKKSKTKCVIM
T3 sequence (P01116 1-188 isoform P01116-2): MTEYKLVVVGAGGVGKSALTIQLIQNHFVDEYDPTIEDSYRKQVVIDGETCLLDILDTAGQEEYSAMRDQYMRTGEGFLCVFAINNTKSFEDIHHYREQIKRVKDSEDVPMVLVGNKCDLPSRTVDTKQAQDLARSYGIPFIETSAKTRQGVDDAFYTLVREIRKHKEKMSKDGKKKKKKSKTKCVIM
T4 sequence (P01116 1-188 isoform P01116-2 G12S): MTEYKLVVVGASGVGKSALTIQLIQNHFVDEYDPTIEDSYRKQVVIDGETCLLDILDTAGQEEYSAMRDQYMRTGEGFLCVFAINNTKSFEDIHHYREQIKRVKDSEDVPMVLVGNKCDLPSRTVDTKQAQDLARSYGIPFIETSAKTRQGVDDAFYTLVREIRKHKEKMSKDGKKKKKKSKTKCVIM

IC50 [1] [µM]	IC50 [2] [µM]	IC50 [3] [µM]	IC50 [4] [µM]	SMILES
< 0.1	< 0.1	< 0.1	< 0.1	CS(=O)(=O)N1CC1C(=O)NCCN1CCOc2c(Cl)c(-c3ccc(F)c4sc(N)c(C#N)c34)c(F)c3nc(OC[C@@]45CCCN4C[C@H](F)C5)nc1c23 (stereo partly drawn) [Compound 1077, N-(2-(9-(2-amino-3-cyano-7-fluorobenzo[b]thiophen-4-yl)-8-chloro-10-fluoro-2-(((2R,7aS)-2-fluorotetrahydro-1H-pyrrolizin-7a(5H)-yl)methoxy)-5,6-dihydro-4H-[1,4]oxazepino[5,6,7-de]quinazolin-4-yl)ethyl)-1-(methylsulfonyl)aziridine-2-carboxamide]
< 0.1	< 0.1	< 0.1	< 0.1	N#Cc1c(N)sc2c(F)ccc(-c3c(Cl)c4c5c(nc(OC[C@@]67CCCN6C[C@H](F)C7)nc5c3F)NCCC(CO)O4)c12 (stereo partly drawn) [Compound 1214, 2-amino-4-(9-chloro-11-fluoro-2-(((2R,7aS)-2-fluorotetrahydro-1H-pyrrolizin-7a(5H)-yl)methoxy)-7-(hydroxymethyl)-4,5,6,7-tetrahydro-[1,5]oxazocino[4,3,2-de]quinazolin-10-yl)-7-fluorobenzo[b]thiophene-3-carbonitrile]
< 0.1	< 0.1	< 0.1	< 0.1	N#Cc1c(N)sc2c(F)ccc(-c3c(Cl)c4c5c(nc(OC[C@@]67CCCN6C[C@H](F)C7)nc5c3F)N(CC(F)F)[C@@H](c3cnco3)CO4)c12 (single isomer, unassigned) [Compound 763]
< 0.1	< 0.1	< 0.1	< 0.1	N#Cc1c(N)sc2c(F)ccc(-c3c(Cl)c4c5c(nc(OC[C@@]67CCCN6C[C@H](F)C7)nc5c3F)N(C3CCCNC3)CCO4)c12 (stereo partly drawn) [Compound 787, 2-amino-4-(8-chloro-10-fluoro-2-(((2R,7aS)-2-fluorotetrahydro-1H-pyrrolizin-7a(5H)-yl)methoxy)-4-(piperidin-3-yl)-5,6-dihydro-4H-[1,4]oxazepino[5,6,7-de]quinazolin-9-yl)-7-fluorobenzo[b]thiophene-3-carbonitrile]
< 0.1	< 0.1	< 0.1	< 0.1	N#Cc1c(N)sc2c(F)ccc(-c3c(Cl)c4c5c(nc(OC[C@@]67CCCN6C[C@H](F)C7)nc5c3F)N(C3CCCNCC3)CCO4)c12 (stereo partly drawn) [Compound 1059, 2-amino-4-(4-(azepan-4-yl)-8-chloro-10-fluoro-2-(((2R,7aS)-2-fluorotetrahydro-1H-pyrrolizin-7a(5H)-yl)methoxy)-5,6-dihydro-4H-[1,4]oxazepino[5,6,7-de]quinazolin-9-yl)-7-fluorobenzo[b]thiophene-3-carbonitrile]
< 0.1	< 0.1	< 0.1	< 0.1	CC1(O)CCCC(N2CCOc3c(Cl)c(-c4ccc(F)c5sc(N)c(C#N)c45)c(F)c4nc(OC[C@@]56CCCN5C[C@H](F)C6)nc2c34)C1 (stereo partly drawn) [Compound 1069, 2-amino-4-(8-chloro-10-fluoro-2-(((2R,7aS)-2-fluorotetrahydro-1H-pyrrolizin-7a(5H)-yl)methoxy)-4-(3-hydroxy-3-methylcyclohexyl)-5,6-dihydro-4H-[1,4]oxazepino[5,6,7-de]quinazolin-9-yl)-7-fluorobenzo[b]thiophene-3-carbonitrile]
< 0.1	< 0.1	< 0.1	< 0.1	C=C[C@H]1COc2c(Cl)c(-c3ccc(F)c4sc(N)c(C#N)c34)c(F)c3nc(OC[C@@]45CCCN4C[C@H](F)C5)nc(c23)N1CCOC (single isomer, unassigned) [Compound 917]
< 0.1	< 0.1	< 0.1	< 0.1	C=C[C@H]1COc2c(Cl)c(-c3ccc(F)c4sc(N)c(C#N)c34)c(F)c3nc(OC[C@@]45CCCN4C[C@H](F)C5)nc(c23)N1CCC(F)F (single isomer, unassigned) [Compound 906]
< 0.1	< 0.1	< 0.1	< 0.1	CC(=O)C1COc2c(Cl)c(-c3ccc(F)c4sc(N)c(C#N)c34)c(F)c3nc(OC[C@@]45CCCN4C[C@H](F)C5)nc(c23)N1CC(F)F (stereo partly drawn) [Compound 981, 4-(5-acetyl-8-chloro-4-(2,2-difluoroethyl)-10-fluoro-2-(((2R,7aS)-2-fluorotetrahydro-1H-pyrrolizin-7a(5H)-yl)methoxy)-5,6-dihydro-4H-[1,4]oxazepino[5,6,7-de]quinazolin-9-yl)-2-amino-7-fluorobenzo[b]thiophene-3-carbonitrile]
< 0.1	< 0.1	< 0.1	< 0.1	C#C[C@H]1COc2c(Cl)c(-c3ccc(F)c4sc(N)c(C#N)c34)c(F)c3nc(OC[C@@]45CCCN4C[C@H](F)C5)nc(c23)N1C1CCOC1 (stereo partly drawn) [Compound 843, 2-amino-4-((5S)-8-chloro-5-ethynyl-10-fluoro-2-(((2R,7aS)-2-fluorotetrahydro-1H-pyrrolizin-7a(5H)-yl)methoxy)-4-(tetrahydrofuran-3-yl)-5,6-dihydro-4H-[1,4]oxazepino[5,6,7-de]quinazolin-9-yl)-7-fluorobenzo[b]thiophene-3-carbonitrile]
< 0.1	< 0.1	< 0.1	< 0.1	C=C(C(F)F)[C@H]1COc2c(Cl)c(-c3ccc(F)c4sc(N)c(C#N)c34)c(F)c3nc(OC[C@@]45CCCN4C[C@H](F)C5)nc(c23)N1CC(F)F (single isomer, unassigned) [Compound 629]
< 0.1	< 0.1	< 0.1	< 0.1	N#Cc1c(N)sc2c(F)ccc(-c3c(Cl)c4c5c(nc(OC[C@@]67CCCN6C[C@H](F)C7)nc5c3F)N(CC(F)F)C(C3CCN3)CO4)c12 (stereo partly drawn) [Compound 816, 2-amino-4-(5-(azetidin-2-yl)-8-chloro-4-(2,2-difluoroethyl)-10-fluoro-2-(((2R,7aS)-2-fluorotetrahydro-1H-pyrrolizin-7a(5H)-yl)methoxy)-5,6-dihydro-4H-[1,4]oxazepino[5,6,7-de]quinazolin-9-yl)-7-fluorobenzo[b]thiophene-3-carbonitrile]
< 0.1	< 0.1	< 0.1	< 0.1	N#Cc1c(N)sc2c(F)ccc(-c3c(Cl)c4c5c(nc(OC[C@@]67CCCN6C[C@H](F)C7)nc5c3F)N(CC(F)F)C(C3CC3(F)F)CO4)c12 (stereo partly drawn) [Compound 987, 2-amino-4-(8-chloro-5-(2,2-difluorocyclopropyl)-4-(2,2-difluoroethyl)-10-fluoro-2-(((2R,7aS)-2-fluorotetrahydro-1H-pyrrolizin-7a(5H)-yl)methoxy)-5,6-dihydro-4H-[1,4]oxazepino[5,6,7-de]quinazolin-9-yl)-7-fluorobenzo[b]thiophene-3-carbonitrile]
< 0.1	< 0.1	< 0.1	< 0.1	C[C@H]1C[C@@H](N2CCOc3c(Cl)c(-c4ccc(F)c5sc(N)c(C#N)c45)c(F)c4nc(OC[C@@]56CCCN5C[C@H](F)C6)nc2c34)CN1 [Compound 1010, 2-amino-4-(8-chloro-10-fluoro-2-(((2R,7aS)-2-fluorotetrahydro-1H-pyrrolizin-7a(5H)-yl)methoxy)-4-((3R,5S)-5-methylpyrrolidin-3-yl)-5,6-dihydro-4H-[1,4]oxazepino[5,6,7-de]quinazolin-9-yl)-7-fluorobenzo[b]thiophene-3-carbonitrile]
